The subject of data set [1] is Rattus norvegicus. Kind of data set: Antiinflammatory activity in Wistar rat assessed as inhibition of carrageenan-induced paw edema at 20 mg/kg, po administered 30 mins before carrageenan challenge measured after 5 hrs. It is filed as functional. For orientation: In the carrageenan paw model, swelling and tenderness develop within hours.
Data set [2] deals with Rattus norvegicus. Description: Antiinflammatory activity in Wistar rat assessed as inhibition of carrageenan-induced paw edema at 20 mg/kg, po administered 30 mins before carrageenan challenge measured after 3 hrs. The data set is classed as functional.
Data set [3] concerns Mus musculus. Kind of data set: Toxicity in Swiss albino mouse assessed as behavioral change at 100 mg/kg, po measured up to 24 hrs. Details: dose 100 mg/kg, route oral. Particulars: in vivo. It is filed as organism-based.
For data set [4], the target named is Prostaglandin G/H synthase 1 (Bos taurus, UniProt O62664). Kind of data set: Inhibition of bovine COX1 assessed as PGE2 formation preincubated for 10 mins by ELISA. (An ELISA detects its analyte on a solid surface through an enzyme-linked reagent.)
Prostaglandin G/H synthase 1, sequence (O62664 whole entry): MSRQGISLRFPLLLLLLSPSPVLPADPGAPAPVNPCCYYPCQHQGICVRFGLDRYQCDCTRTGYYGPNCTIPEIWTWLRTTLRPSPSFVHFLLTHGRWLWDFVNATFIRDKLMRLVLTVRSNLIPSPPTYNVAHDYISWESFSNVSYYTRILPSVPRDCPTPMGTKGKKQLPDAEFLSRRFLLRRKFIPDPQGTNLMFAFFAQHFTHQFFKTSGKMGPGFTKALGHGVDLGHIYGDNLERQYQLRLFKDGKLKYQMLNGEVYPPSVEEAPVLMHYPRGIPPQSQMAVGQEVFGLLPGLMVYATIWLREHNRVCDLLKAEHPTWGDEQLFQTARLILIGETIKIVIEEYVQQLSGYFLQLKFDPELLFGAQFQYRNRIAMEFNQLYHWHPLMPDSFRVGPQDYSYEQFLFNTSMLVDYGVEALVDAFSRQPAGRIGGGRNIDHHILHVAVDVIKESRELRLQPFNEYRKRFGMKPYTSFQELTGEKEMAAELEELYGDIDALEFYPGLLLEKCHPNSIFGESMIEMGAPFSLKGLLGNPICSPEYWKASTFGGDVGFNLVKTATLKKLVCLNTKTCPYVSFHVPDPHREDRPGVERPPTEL
For data set [5], the system named is Mus musculus. Description: Toxicity in Swiss albino mouse assessed as mortality at 100 mg/kg, po measured up to 24 hrs. Conditions: in vivo. The data set is classed as organism-based. Details: dose 100 mg/kg, route oral.
Data set [6] has as its system Rattus norvegicus. Kind of data set: Ulcerogenic activity in fasted Wistar albino rat at 60 mg/kg, po administered as 3 dose measured after 6 hrs post last dose. Also noted: dose 60 mg/kg, route oral. It is filed as toxicity, organism-based. Conditions: in vivo.

In general, inhibition in vivo refers to the drop in the measured response relative to a control, in per cent. Consider `COc1cc(C2CC(c3c(O)cc(C)c(Cl)c3C)=NN2c2ccc(S(N)(=O)=O)cc2)cc(OC)c1OC` (stereo unspecified), for which the inhibition in vivo at 20 mg/kg in the data set on Rattus norvegicus [1] came to 75%; in the data set on Rattus norvegicus [2], 68.4%.
Taken in the same sequence, the figures for `Cc1cc(O)c(C2=NN(c3ccc(S(N)(=O)=O)cc3)C(c3ccccc3Cl)C2)c(C)c1Cl` (stereo unspecified) were 45.5% and 53%.
For the compound `COc1ccc(C2CC(c3c(O)cc(C)c(Cl)c3C)=NN2c2ccc(S(N)(=O)=O)cc2)cc1OC` (stereo unspecified), the results for the inhibition in vivo at 20 mg/kg with Rattus norvegicus [1] and with Rattus norvegicus [2] were 45.5% and 26.7%, respectively.
What is called IC50 is the concentration that inhibits the measured activity by half. As for `Cc1cc(O)c(C2=NN(c3ccc(S(N)(=O)=O)cc3)C(c3ccccc3O)C2)c(C)c1Cl` (stereo unspecified), the Activity result in the data set on Mus musculus [3], with Mus musculus [5] and in the data set on Rattus norvegicus [6] was “Non-toxic” in each case. Also, the IC50 in data set [4] turned out to be 65.4 µM. The inhibition in vivo at 20 mg/kg was found to be 75% in the data set on Rattus norvegicus [1] and 79% in the data set on Rattus norvegicus [2].
In the case of `Cc1ccc(-c2cc(C(F)(F)F)nn2-c2ccc(S(N)(=O)=O)cc2)cc1` [CELECOXIB], the inhibition in vivo at 20 mg/kg in the data set on Rattus norvegicus [1] was determined as 82%; in the data set with Rattus norvegicus [2], 79.6%.
The corresponding values for `Cc1cc(O)c(C2=NN(c3ccc(S(N)(=O)=O)cc3)C(c3ccccc3)C2)c(C)c1Cl` (stereo unspecified) are 36.4% and 20%.
